Data: US12017976B1, “1-(4-carbonoimidoylphenoxy)-3-{4-[(e)-(phenylimino)methyl]phenoxy }propan-2-ol as an eco-friendly insecticidal agent against Spodoptera littoralis (boisd.)” (KING FAISAL UNIVERSITY, priority 2024, dated 2024)
In brackets after ≈: the same amount, converted by molar mass.

Columns and labels:
[1] = tested on: Spodoptera littoralis larvae (2nd and 4th instar); test: Insecticidal leaf dip bioassay on larvae of the laboratory strain of cotton leafworm
Method: Five concentrations (200, 100, 50, 25, 12.5 ppm) were designed for this synthetic compound and the reference fenoxycarb's compound as the dynamic ingredients based on ppm via diluting the commercial formulation.
In this experiment, the synthetic compound was tested for its insecticidal bioactivity using the industry-standard leaf dip bioassay techniques. […] Until usage, the stocks were kept in a refrigerator. The target substance test results were noted & the concentrations needed to destroy 50% (LC50) of S. littoralis larvae were calculated. The target compound was employed in five different concentrations, & 0.1% Tween 80 was employed as a surfactant. Castor bean leaf discs (nine centimeters in diameter) were dipped in the concentration under test for ten seconds, then fed to 2th & 4th larvae, which were roughly the same size and housed in glass jars (five pound). Each action carried out 3 times with ten larvae each. The mortality equalized via Abbott's formula. […] The mortality results of larval insect were estimated through employing probit analysis through a statistics (LDP-line) equation which estimate the LC50 values with 95% fiducially limits of lower, upper confidence limit and slope.

aquatic insects = conditions: highly toxic / very highly toxic classification; cited from earlier work

| Structure (SMILES) | Toxicity index %, 2nd instar larvae ([1]; 2nd instar larvae, 72 hours, fenoxycarb's LC50 / compound's LC50) [%] | Toxicity index %, 4th instar larvae ([1]; 4th instar larvae, 72 hours, fenoxycarb's LC50 / compound's LC50) [%] | LC50 ([1]; Spodoptera littoralis, in Gossypium hirsutum, foliar, read-out: LC50 against Spodoptera littoralis) [µg/mL] | LC50 for aquatic insects (aquatic insects) [µg/mL] |
| --- | --- | --- | --- | --- |
| CCOC(=O)NCCOc1ccc(Oc2ccccc2)cc1 [fenoxycarb] | 100 | 100 | 5.94 (≈ 19.7 µM) | – |
| CCc1ccc(C(=O)NN(C(=O)c2cc(C)cc(C)c2)C(C)(C)C)cc1 [tebufenozide] | – | – | – | 100 to 1000 |
